Measurements published in patent publication US9708314B2, “Heterocyclic amide compound” (NISSAN CHEMICAL INDUSTRIES, LTD., priority 2013, dated 2017).

What was measured:
Type in all cases: in vivo
Brassica campestris L. = experiment: Test Example 4: effect on crop by application to foliage (diluvial soil, plastic box); conditions: 320 g/ha; for effect on crop, g (Brassica campestris L.): application to foliage
Summary of the method: (§1)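 Scores run from 0 (herbicidal ratio ≤5%) to 5 (≥90%, almost fully withered) and were assessed three weeks after foliar spraying. Seedlings had been raised for 14 days at 25-30° C in sterilized diluvial soil before treatment, with the emulsion diluted in water to the stated g/ha dose.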

Glycine max = experiment: as above; conditions: 320 g/ha; for effect on crop, c (Glycine max): application to foliage
Summary of the method: as §1

Triticum aestivum = experiment: as above; conditions: 320 g/ha; for effect on crop, e (Triticum aestivum): application to foliage
Summary of the method: as §1

Zea mays = experiment: as above; conditions: 320 g/ha; for effect on crop, b (Zea mays): application to foliage
Summary of the method: as §1

[1] = tested on: directly sowed Oryza sativa; experiment: as above; conditions: 320 g/ha; for effect on crop, d (directly sowed Oryza sativa): application to foliage
Summary of the method: as §1

[2] = tested on: Beta vulgaris ssp. vulgaris; experiment: as above; conditions: 320 g/ha; for effect on crop, f (Beta vulgaris ssp. vulgaris): application to foliage
Summary of the method: as §1

Alopecurus myosuroides = experiment: Test Example 4: herbicidal effect by application to foliage (diluvial soil, plastic box); conditions: 320 g/ha; for herbicidal effect, J (Alopecurus myosuroides): application to foliage
Summary of the method: as §1

Setaria viridis = experiment: as above; conditions: 320 g/ha; for herbicidal effect, G (Setaria viridis): application to foliage
Summary of the method: as §1

Chenopodium album = experiment: as above; conditions: 320 g/ha; for herbicidal effect, O (Chenopodium album): application to foliage
Summary of the method: as §1

Amaranthus retroflexus = experiment: as above; conditions: 320 g/ha; for herbicidal effect, N (Amaranthus retroflexus): application to foliage
Summary of the method: as §1

[3] = tested on: Echinochloa crus-galli var. crus-galli; experiment: as above; conditions: 320 g/ha; for herbicidal effect, H (Echinochloa crus-galli var. crus-galli): application to foliage
Summary of the method: as §1

Abutilon theophrasti = experiment: as above; conditions: 320 g/ha; for herbicidal effect, M (Abutilon theophrasti): application to foliage
Summary of the method: as §1

Veronica persica = experiment: as above; conditions: 320 g/ha; for herbicidal effect, R (Veronica persica): application to foliage
Summary of the method: as §1

Galium spurium = experiment: as above; conditions: 320 g/ha; for herbicidal effect, Q (Galium spurium): application to foliage
Summary of the method: as §1

Stellaria media = experiment: as above; conditions: 320 g/ha; for herbicidal effect, P (Stellaria media): application to foliage
Summary of the method: as §1

Digitaria ciliaris = experiment: as above; conditions: 320 g/ha; for herbicidal effect, F (Digitaria ciliaris): application to foliage
Summary of the method: as §1

Apera spica-venti. = experiment: as above; conditions: 320 g/ha; for herbicidal effect, L (Apera spica-venti.): application to foliage
Summary of the method: as §1

Lolium multiflorum Lam. = experiment: as above; conditions: 320 g/ha; for herbicidal effect, K (Lolium multiflorum Lam.): application to foliage
Summary of the method: as §1

Avena fatua = experiment: as above; conditions: 320 g/ha; for herbicidal effect, I (Avena fatua): application to foliage
Summary of the method: as §1

[4] = tested on: directly sowed Oryza sativa; experiment: Test Example 3: effect on crop by application to foliage (Wagner pot, water depth 0.1-0.5 cm); conditions: Nineteenth Table; application to foliage; application herbicide amount 320 g/ha
Summary of the method: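 Visual 0–5 rating of herbicidal ratio, taken 3 weeks after foliar spray of a diluted emulsion formulation at rates expressed as g/ha. Plants had been sown in alluvial soil under 0.1–0.5 cm water and grown 14 days at 25–30 °C under glass before application.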

COCCSc1nnc2c(C(=O)Nc3nnnn3C)ccc(C(F)(F)F)n12 [2-101]
effect on crop, g (Brassica campestris L.) (Brassica campestris L.): 5 (Herbicidal ratio of 90% or more (almost completely withered))
effect on crop, c (Glycine max) (Glycine max): 2 (Herbicidal ratio of 20% or more and less than 40%)
effect on crop, e (Triticum aestivum) (Triticum aestivum): 3 (Herbicidal ratio of 40% or more and less than 70%)
effect on crop, b (Zea mays) (Zea mays): 4 (Herbicidal ratio of 70% or more and less than 90%)
effect on crop, d (directly sowed Oryza sativa) [1]: 5 (Herbicidal ratio of 90% or more (almost completely withered))
effect on crop, f (Beta vulgaris ssp. vulgaris) [2]: 5 (Herbicidal ratio of 90% or more (almost completely withered))
herbicidal effect, J (Alopecurus myosuroides) (Alopecurus myosuroides): 3 (Herbicidal ratio of 40% or more and less than 70%)
herbicidal effect, G (Setaria viridis) (Setaria viridis): 5 (Herbicidal ratio of 90% or more (almost completely withered))
herbicidal effect, O (Chenopodium album) (Chenopodium album): 5 (Herbicidal ratio of 90% or more (almost completely withered))
herbicidal effect, N (Amaranthus retroflexus) (Amaranthus retroflexus): 5 (Herbicidal ratio of 90% or more (almost completely withered))
herbicidal effect, H (Echinochloa crus-galli var. crus-galli) [3]: 5 (Herbicidal ratio of 90% or more (almost completely withered))
herbicidal effect, M (Abutilon theophrasti) (Abutilon theophrasti): 5 (Herbicidal ratio of 90% or more (almost completely withered))
herbicidal effect, R (Veronica persica) (Veronica persica): 5 (Herbicidal ratio of 90% or more (almost completely withered))
herbicidal effect, Q (Galium spurium) (Galium spurium): 4 (Herbicidal ratio of 70% or more and less than 90%)
herbicidal effect, P (Stellaria media) (Stellaria media): 5 (Herbicidal ratio of 90% or more (almost completely withered))
herbicidal effect, F (Digitaria ciliaris) (Digitaria ciliaris): 5 (Herbicidal ratio of 90% or more (almost completely withered))
herbicidal effect, L (Apera spica-venti.) (Apera spica-venti.): 4 (Herbicidal ratio of 70% or more and less than 90%)
herbicidal effect, K (Lolium multiflorum Lam.) (Lolium multiflorum Lam.): 3 (Herbicidal ratio of 40% or more and less than 70%)
herbicidal effect, I (Avena fatua) (Avena fatua): 3 (Herbicidal ratio of 40% or more and less than 70%)
b (effect on crop grade) [4]: 4 (Herbicidal ratio of 70% or more and less than 90%)

Cn1nnnc1NC(=O)c1ccc(C(F)(F)F)n2c(CO)nnc12 [2-108]
effect on crop, g (Brassica campestris L.) (Brassica campestris L.): 5 (Herbicidal ratio of 90% or more (almost completely withered))
effect on crop, c (Glycine max) (Glycine max): 0 (Herbicidal ratio of 5% or less (almost no effect))
effect on crop, e (Triticum aestivum) (Triticum aestivum): 1 (Herbicidal ratio of 5% or more and less than 20%)
effect on crop, b (Zea mays) (Zea mays): 4 (Herbicidal ratio of 70% or more and less than 90%)
effect on crop, d (directly sowed Oryza sativa) [1]: 4 (Herbicidal ratio of 70% or more and less than 90%)
effect on crop, f (Beta vulgaris ssp. vulgaris) [2]: 5 (Herbicidal ratio of 90% or more (almost completely withered))
herbicidal effect, J (Alopecurus myosuroides) (Alopecurus myosuroides): 0 (Herbicidal ratio of 5% or less (almost no effect))
herbicidal effect, G (Setaria viridis) (Setaria viridis): 3 (Herbicidal ratio of 40% or more and less than 70%)
herbicidal effect, O (Chenopodium album) (Chenopodium album): 5 (Herbicidal ratio of 90% or more (almost completely withered))
herbicidal effect, N (Amaranthus retroflexus) (Amaranthus retroflexus): 5 (Herbicidal ratio of 90% or more (almost completely withered))
herbicidal effect, H (Echinochloa crus-galli var. crus-galli) [3]: 5 (Herbicidal ratio of 90% or more (almost completely withered))
herbicidal effect, M (Abutilon theophrasti) (Abutilon theophrasti): 5 (Herbicidal ratio of 90% or more (almost completely withered))
herbicidal effect, R (Veronica persica) (Veronica persica): 5 (Herbicidal ratio of 90% or more (almost completely withered))
herbicidal effect, Q (Galium spurium) (Galium spurium): 4 (Herbicidal ratio of 70% or more and less than 90%)
herbicidal effect, P (Stellaria media) (Stellaria media): 5 (Herbicidal ratio of 90% or more (almost completely withered))
herbicidal effect, F (Digitaria ciliaris) (Digitaria ciliaris): 4 (Herbicidal ratio of 70% or more and less than 90%)
herbicidal effect, L (Apera spica-venti.) (Apera spica-venti.): 0 (Herbicidal ratio of 5% or less (almost no effect))
herbicidal effect, K (Lolium multiflorum Lam.) (Lolium multiflorum Lam.): 0 (Herbicidal ratio of 5% or less (almost no effect))
herbicidal effect, I (Avena fatua) (Avena fatua): 1 (Herbicidal ratio of 5% or more and less than 20%)
b (effect on crop grade) [4]: 4 (Herbicidal ratio of 70% or more and less than 90%)

COc1ccc(CSc2nnc3c(C(=O)Nc4nnnn4C)ccc(C(F)(F)F)n23)cc1 [2-077]
effect on crop, g (Brassica campestris L.) (Brassica campestris L.): 2 (Herbicidal ratio of 20% or more and less than 40%)
effect on crop, c (Glycine max) (Glycine max): 0 (Herbicidal ratio of 5% or less (almost no effect))
effect on crop, e (Triticum aestivum) (Triticum aestivum): 0 (Herbicidal ratio of 5% or less (almost no effect))
effect on crop, b (Zea mays) (Zea mays): 0 (Herbicidal ratio of 5% or less (almost no effect))
effect on crop, d (directly sowed Oryza sativa) [1]: 2 (Herbicidal ratio of 20% or more and less than 40%)
effect on crop, f (Beta vulgaris ssp. vulgaris) [2]: 5 (Herbicidal ratio of 90% or more (almost completely withered))
herbicidal effect, J (Alopecurus myosuroides) (Alopecurus myosuroides): 0 (Herbicidal ratio of 5% or less (almost no effect))
herbicidal effect, G (Setaria viridis) (Setaria viridis): 2 (Herbicidal ratio of 20% or more and less than 40%)
herbicidal effect, O (Chenopodium album) (Chenopodium album): 5 (Herbicidal ratio of 90% or more (almost completely withered))
herbicidal effect, N (Amaranthus retroflexus) (Amaranthus retroflexus): 5 (Herbicidal ratio of 90% or more (almost completely withered))
herbicidal effect, H (Echinochloa crus-galli var. crus-galli) [3]: 4 (Herbicidal ratio of 70% or more and less than 90%)
herbicidal effect, M (Abutilon theophrasti) (Abutilon theophrasti): 4 (Herbicidal ratio of 70% or more and less than 90%)
herbicidal effect, R (Veronica persica) (Veronica persica): 3 (Herbicidal ratio of 40% or more and less than 70%)
herbicidal effect, Q (Galium spurium) (Galium spurium): 3 (Herbicidal ratio of 40% or more and less than 70%)
herbicidal effect, P (Stellaria media) (Stellaria media): 4 (Herbicidal ratio of 70% or more and less than 90%)
herbicidal effect, F (Digitaria ciliaris) (Digitaria ciliaris): 4 (Herbicidal ratio of 70% or more and less than 90%)
herbicidal effect, L (Apera spica-venti.) (Apera spica-venti.): 0 (Herbicidal ratio of 5% or less (almost no effect))
herbicidal effect, K (Lolium multiflorum Lam.) (Lolium multiflorum Lam.): 0 (Herbicidal ratio of 5% or less (almost no effect))
herbicidal effect, I (Avena fatua) (Avena fatua): 0 (Herbicidal ratio of 5% or less (almost no effect))
b (effect on crop grade) [4]: 0 (Herbicidal ratio of 5% or less (almost no effect))

Cc1ccc(-c2nnc3c(C(=O)Nc4nnnn4C)ccc(C(F)(F)F)n23)cc1 [2-042]
g (Brassica campestris L.) effect on crop grade (Brassica campestris L.; foliage application): 2 (Herbicidal ratio of 20% or more and less than 40%)
c (Glycine max) effect on crop grade (Glycine max; foliage application): 0 (Herbicidal ratio of 5% or less (almost no effect))
e (Triticum aestivum) effect on crop grade (Triticum aestivum; foliage application): 0 (Herbicidal ratio of 5% or less (almost no effect))
b (Zea mays) effect on crop grade (Zea mays; foliage application): 4 (Herbicidal ratio of 70% or more and less than 90%)
d (directly sowed Oryza sativa) effect on crop grade ([1]; foliage application): 3 (Herbicidal ratio of 40% or more and less than 70%)
f (Beta vulgaris ssp. vulgaris) effect on crop grade ([2]; foliage application): 4 (Herbicidal ratio of 70% or more and less than 90%)
J (Alopecurus myosuroides) herbicidal effect grade (Alopecurus myosuroides; foliage application): 2 (Herbicidal ratio of 20% or more and less than 40%)
G (Setaria viridis) herbicidal effect grade (Setaria viridis; foliage application): 5 (Herbicidal ratio of 90% or more (almost completely withered))
O (Chenopodium album) herbicidal effect grade (Chenopodium album; foliage application): 5 (Herbicidal ratio of 90% or more (almost completely withered))
N (Amaranthus retroflexus) herbicidal effect grade (Amaranthus retroflexus; foliage application): 5 (Herbicidal ratio of 90% or more (almost completely withered))
H (Echinochloa crus-galli var. crus-galli) herbicidal effect grade ([3]; foliage application): 5 (Herbicidal ratio of 90% or more (almost completely withered))
M (Abutilon theophrasti) herbicidal effect grade (Abutilon theophrasti; foliage application): 5 (Herbicidal ratio of 90% or more (almost completely withered))
R (Veronica persica) herbicidal effect grade (Veronica persica; foliage application): 5 (Herbicidal ratio of 90% or more (almost completely withered))
Q (Galium spurium) herbicidal effect grade (Galium spurium; foliage application): 1 (Herbicidal ratio of 5% or more and less than 20%)
P (Stellaria media) herbicidal effect grade (Stellaria media; foliage application): 3 (Herbicidal ratio of 40% or more and less than 70%)
F (Digitaria ciliaris) herbicidal effect grade (Digitaria ciliaris; foliage application): 5 (Herbicidal ratio of 90% or more (almost completely withered))
L (Apera spica-venti.) herbicidal effect grade (Apera spica-venti.; foliage application): 0 (Herbicidal ratio of 5% or less (almost no effect))
K (Lolium multiflorum Lam.) herbicidal effect grade (Lolium multiflorum Lam.; foliage application): 1 (Herbicidal ratio of 5% or more and less than 20%)
I (Avena fatua) herbicidal effect grade (Avena fatua; foliage application): 2 (Herbicidal ratio of 20% or more and less than 40%)
b (effect on crop grade) [4]: 5 (Herbicidal ratio of 90% or more (almost completely withered))
